Broadly, the AUC is the area under the concentration-time curve, a measure of exposure. The Cmax is the maximum level reached in the sampled fluid or tissue. As a reminder, the bioavailability is the share of a dose that reaches the circulation, judged against a reference dose that is usually intravenous. As a reminder, the Tmax is the time from dosing to the highest level. In general, LD50 refers to the dose at which mortality reaches 50%.

We go through two compounds from US6649797B2, “Compounds and methods of use to treat infectious diseases” (The Picower Institute for Medical Research, priority 1996, dated 2003).

Structures are written as SMILES. Several values for one entry are separate records, joined by “and”; a condition that tells them apart may be missing. Identical values can stand only once. Like-named read-outs stand apart in the source and are kept apart here.

Data set [1] has as its system monocyte and T lymphocyte cultures. As to the kind of experiment: Cytotoxicity in monocyte and T lymphocyte cultures in vitro. The format is cell-based.
The target of data set [2] is T1, HIV-1 pre-integration complex (MA / HIV-1 cDNA) (Human immunodeficiency virus type 1 group M subtype B, UniProt P05890+P05959).
T1 construct: MA is made from the Gag precursor and RT is made from the Gag-Pol precursor; endogenous in cells; host or cells: cytoplasmic extract of H9 cells infected with HIV-1RF
As to the kind of experiment: Association of MA with HIV-1 cDNA (anti-MA immunoprecipitation of viral DNA). It counts as biochemical. Particulars: 10 μM (FIG. 13A). As for the experimental part: Cytoplasmic extracts prepared from H9 cells infected with HIV-1RF were treated with 10 μM CNI-H0294 (lanes 2, 3, and 4) or left untreated (lane 1). Samples were divided into two aliquots. One aliquot was mixed with GST-karyopherin α immobilized on Sepharose beads and the HIV-1 DNA that bound was quantified by PCR. The second aliquot was immunoprecipitated (IP) with anti-MA serum (αMA, lane 3) or with pre-immune serum (NSS, lane 4) as control.
To test this hypothesis, cytoplasmic lysates of HIV-1-infected H9 cells were treated with CNI-H0294 and mixed with immobilized karyopherin α or subjected to immunoprecipitation with antibodies that bind MA.

The target of another data set is HIV-1 RT (Human immunodeficiency virus type 1 group M subtype B, UniProt P04585). As to the kind of experiment: Enzymatic activity of HIV-1 RT in vitro. It counts as biochemical.
Data set [3] in a line: Pharmacokinetics in mice (plasma, HPLC). It counts as in vivo, mouse. Particulars: for AUC / Cmax / bioavailability / Tmax / A (zero time intercept of the distribution phase) / B (zero time intercept of the elimination phase) / Cltot / VD / t1/2α / t1/2β / α / β: mouse.
Protocol: Standard addition curves for each test compound were constructed by adding increased amounts of drug to mouse or human A^+ plasma (Long Island Blood Services; Melville, N.Y). […] The column was washed with 1.0 ml of water and then eluted with 1.0 ml of 10 mM tetramethylammonium chloride/10 mM heptane sulfonate/4.2 mM H3PO4/95% CH3CN/5% H2O (Buffer C). The eluted sample was reduced to dryness in a rotary evaporator and resuspended in 1.0 ml Buffer A.
Two hundred μl of the resuspended sample was injected onto a Hewlett-Packard model 1090 high performance liquid chromatography system (HPLC)(Wilmington, Del.) equipped with a photodiode array ultraviolet/visible spectrophotometric detector, autosampler, and Chemstation operating software. The column used was a 250×4.6 mm Zorbax RX-C8 column (Mac-Mod Analyticals; Chadd's Ford, Pa.) kept at room temperature and run at 1.5 ml/min. The mobile phase used was Buffer A and 10 mM tetramethylammonium chloride/10 mM heptane sulfonate/4.2 mM H3PO4/75% CH3CN/25% H2O (Buffer B), with all runs initiated at 10% Buffer B. A linear 30 min gradient to 60% Buffer B was then performed, followed by a 4 min reverse gradient to initial conditions.
Female ND4 Swiss Webster mice (21-24 g) were obtained from Harlan Sprague Dawley (Indianapolis, Ind.) and randomly placed in groups of five in cages with free access to food and water. […] The other CNI compounds were administered intraperitoneally or by oral gavage as a solution in water titrated with sufficient HCl to dissolve the drug. At various time points, ranging from 5 min to 4 days, a single group of animals was euthanized by carbon dioxide inhalation and bled by cardiac puncture using heparin as an anticoagulant. The blood from the five mice in the group was pooled and centrifuged at 14000× g for 10 min. The volume of plasma was measured, and equal volume of Buffer A added, and the mixture extracted and analyzed as described above, except that the dried eluates were resuspended in 200 μl Buffer A and 100 μl was injected onto the high performance liquid chromatography (HPLC) system.
The area under the plasma concentration-time curve (AUC) was determined, and bioavailability was measured as AUCoral/AUCi.p. A and B represent the zero time intercept of the distribution and elimination phases respectively, and a and β the respective slopes of the phases multiplied by 2.303. The t/2α and t1/2β are calculated half-lives of the drug in each phase (0.693/α and 0.693/β respectively). The volume of distribution (VD) was calculated as dose/B, and the total clearance rate (Cltot) calculated as β*VD. Cmax and tmax are the maximal plasma concentration and time of this measurement, respectively.
Data set [4] is described as follows: Toxicity in mice, median lethal dose by intraperitoneal injection. The format is in vivo, mouse. On the procedure:
The doses of compounds of the invention found to be lethal to 50% of the mice (LD50) were determined by intraperitoneal injection of groups of five animals with increasing doses of each compound. CNI-0294 was administered from 0, 2, 10, 20, 40, 80, 160, 320, 640, 1280 mg/kg in 0.5 ml of water/HCl; CNI-1594 at 0, 2.4, 5, 10, 20, 40, 80 mg/kg in 0.5 ml of water/HCl; CNI-1794 at 0, 20, 50, 80 mg/kg in 0.5 ml of water/HCl; and CNI-1894 at 0, 10, 20, 40, 80, 240, 480, 960 mg/kg in water/HCl. […] The percentage of animals in each group which died were utilized to calculate the LD50 by non-linear curve fitting with the Enzfit software (Elsevier Bioscience; Cambridge, UK) programmed with the Chou equation (Chou 1976, J Theor Biol 39:253-276)).

Another data set relates to HIV-1. The experiment in a line: AZT and Compound No. 2 in combination, HIV-1 infected monocyte cultures, RT activity. Particulars: for reverse transcriptase activity in supernatant: 100 nM Compound No. 2, AZT 0. The format is cell-based. On the procedure: Primary human monocytes were obtained from peripheral blood by Ficoll-Hypaque centrifugation and adherence to plastic as described previously. Gartner S. P., et al., 1986, Science 233:215. Briefly, after Ficoll-Hypaque (Pharmacia) separation, PBMCs were washed 4 times with DMEM (the last wash was done at 800 rpm to remove platelets) and resuspended in monocyte culture medium [DMEM supplemented with 1 mM glutamine, 10% heat-inactivated human serum, 1% penicillin+streptomycin mixture (Sigma)] at a density of 6×10^6 cells/ml. Cells were seeded in 24-well plates (1 ml per well) and incubated for 2 h at 37° C, 5% CO2. Following incubation, cells were washed 3 times with DMEM to remove non-adherent cells and incubation was continued in monocyte culture medium supplemented with 250 U/ml human M-CSF (Sigma). Cells were allowed to mature for 7 days prior to infection with the monocyte-tropic strain, HIV-1ADA. Nuovo, G. J., et al., 1992, Diagn. Mol. Pathol. 1:98. Two hours after infection, cells were washed with medium and cultured in RPMI supplemented with 10% human serum. In experiments where PCR analysis was performed, virus was pretreated with RNAse-free DNAse (Boehinger-Mannheim) for 2 h at room temperature and then filtered though a 0.2 μm pore nitrocellulose filter prior to infection.
For the reverse transcriptase (RT) assay, 10 μl of culture supernatant was added to 40 μl of reaction mixture (final composition was 50 mM Tris-HCl, pH 7.8; 20 MM KCl; 5 MM MgCl2; 1 mM DTT; 0.1% Triton X-100; 0.2 OD/ml polyA; 0.2 OD/ml oligo(dT)12-18; and 40 μCi/ml ^3H-dTTP (76 Ci/mmol, DuPont) and incubated 2 hr at 37° C. 5 μl of the reaction mixture was then spotted onto the DE 81 (Whatman) paper. Paper was air dried and washed 5 times with 5% Na2HPO4, followed by rinsing with distilled water. After air drying, paper was put on a Flexi Filter plate (Packard), covered with scintillation fluid and counted in a Top Count Microplate Counter (Packard). Results are expressed as counts per minute in 1 ml of supernatant (cpm/ml).
In view of these premises, the effects on HIV-1 replication in human monocyte cultures of the various concentrations of AZT, alone or in combination with 100 nM Compound No. 2, were tested using the protocols of Sections 6.2.1 and 6.2.2. Drugs were added to the monocyte cultures together with HIV-1 at about 10^5 TCID/ml. The concentration of drugs was maintained on refeeding. HIV-1 replication was assessed by assay of the supernatant for reverse transcriptase activity. The results are expressed as mean ± std. dev. (cpm×10^−3) in Table V.

Where [5] appears, read: female, ND4 Swiss Webster, plasma, ip, 50 mg/kg, vehicle DMSO/peanut oil.
Where [6] appears, read: female, ND4 Swiss Webster, plasma, ip, 50 mg/kg, vehicle water.
[7] abbreviates: female, ND4 Swiss Webster, plasma, po, 50 mg/kg, vehicle DMSO/peanut oil.
The mark [8] stands for this setting: i.p., 50 mg/kg, vehicle DMSO/peanut oil.

As to `CC(=O)c1cc(Nc2cc(C)[n+](C)c(N)n2)cc(C(C)=O)c1` [CNI-0294, 2-Amino-4-(3,5-diacetylphenyl)amino-1,6-dimethylpyrimidinium chloride], in data set [1], the 50% toxic dose was above 1 mM. The “immunoprecipitation of viral DNA with anti-MA serum” value in data set [2] is on record as “did not prevent immunoprecipitation of viral DNA with anti-MA serum”. Moreover, the “block of enzymatic activity of HIV-1 RT in vitro” value at HIV-1 RT (concentrations up to 50 μM) is on record as “nor did it block in concentrations up to 50 μM the enzymatic activity of HIV-1 RT in vitro”. For the same compound, in data set [3] (setting [5]), the AUC stood at 9150 ng·h/mL and the Cmax was determined as 18800 ng/mL. Besides, in data set [3] (setting [6]), the AUC came to 8830 ng·h/mL and the Cmax was found to be 18900 ng/mL. For the same compound, the bioavailability in data set [3] (female, ND4 Swiss Webster, plasma, oral, mice, single 50 mg/kg dose, AUCoral against AUCi.p., read-out: relative bioavailability) stood at 6%. In data set [3] (setting [7]), this compound registered an AUC of 560 ng·h/mL and a Cmax of 410 ng/mL. Besides, in data set [3] (female, ND4 Swiss Webster, plasma, ip, i.p., 50 mg/kg, vehicle DMSO/peanut oil, read-out: tmax (converted)), the Tmax was 5 min. Further, in data set [3] (female, ND4 Swiss Webster, plasma, oral, 50 mg/kg, vehicle DMSO/peanut oil, AUCoral/AUCi.p., read-out: Bioavailability), the bioavailability turned out to be 6%. Moreover, the Tmax in data set [3] (female, ND4 Swiss Webster, plasma, oral, 50 mg/kg, vehicle DMSO/peanut oil, read-out: tmax (converted)) was 60 min. The compound further yielded a maximal plasma level in data set [3] (mice, oral, single 50 mg/kg dose) of 0.4 µg/mL. The maximal plasma level in data set [3] (mice, single i.p. injection (50 mg/kg; CNI-1594 20 mg/kg)) was 18.76 µg/mL and 18.76 to 18.93 µg/mL. Besides, in data set [3] (setting [8]), the “A (zero time intercept of the distribution phase)” value came out at 14.00 µg/mL, the “B (zero time intercept of the elimination phase)” value amounted to 0.07 µg/mL, the Cltot is 35.35 mL/min and the VD was found to be 14.14 L. Moreover, in data set [3] (setting [8]), the t1/2α was found to be 37.2 min, the t1/2β amounted to 277 min, the α came out at 1.12 h⁻¹ and the β was found to be 0.15 h⁻¹. In data set [3] (i.p., 50 mg/kg, vehicle water), the “A (zero time intercept of the distribution phase)” value worked out at 16.07 µg/mL, the “B (zero time intercept of the elimination phase)” value was determined as 0.05 µg/mL, the Cltot is 62.70 mL/min and the Tmax came out at 5 min. In data set [3] (i.p., 50 mg/kg, vehicle water), this compound yielded a VD of 19.80 L, a t1/2α of 24 min, a t1/2β of 219 min and a α of 1.74 h⁻¹. For the same compound, the β in data set [3] (i.p., 50 mg/kg, vehicle water) came out at 0.19 h⁻¹. The “visible signs of toxicity” value in data set [4] is “no overt signs of toxicity detectable at doses approaching the LD50”. Further, the “LD50 ± standard deviation” value in data set [4] (listed as CNI-H0294) was determined as 590 mg/kg. The LD50 in data set [4] (mouse, in vivo, ip, read-out: LD50 ± standard deviation) is 588 mg/kg.

`CC(=O)c1cc(Nc2cc(C)[n+](C)c(N)n2)cc(C(C)=O)c1.[I-]` [Compound No. 2, 2-amino-4-(3,5-diacetylphenyl)amino-1,6-dimethylpyrimidinium iodide]: the “inhibition of reverse transcriptase” value against HIV-1 RT (data not shown) is given as “does not inhibit reverse transcriptase”. The Dose in data set [3] (calculated from clearance for target serum conc. (No. 2: 10 nM; No. 11: 50 nM; No. 15: 15 nM)) is 6.80 mg/Kg day. The “reverse transcriptase activity in supernatant” value turned out to be 0.37 ± 0.07 cpm×10^−3 in the data set on HIV-1 (day-7) and 0.72 ± 0.30 cpm×10^−3 with HIV-1 (day-11). For the same compound, the “reduction in RT activity” value in the data set with HIV-1 (day-11, 100 nM Compound No. 2 alone) is around 60%.
